The values that follow come from patent US12440475B2, “Hodgkin lymphoma therapy” (priority 2016, dated 2025).

One series has as its system R100. Kind of series: Combination with Brentuximab Vedotin, % survival, R100. In kind it is cell-based, human. The settings on record: Brentuximab Vedotin 0.39 μg/ml (typically 10-fold lower than IC50) with EDO-S101 1.56 μM. On the procedure:
1.56 μM of EDO-S101 was administered to two Hodgkin lymphoma cell lines, the bendamustine naïve cell line L1236 and the bendamustine resistant cell line R100. In a second experiment, Brentuximab Vedotin was administered at a concentration of 3.12 μg/ml to the L1236 cell line and at a concentration of 0.39 μg/ml to the R100 cell line. Finally, in a third experiment EDO-S101 and Brentuximab Vedotin were administered in combination to each of the two cell lines at the same concentrations that they were administered in the monotherapy experiments.

The subject of another series is L1236-R100. Kind of series: Viable cell count and IC50, bendamustine-resistant cell line. The class given is cell-based, human. The note with it: Homo sapiens; R100 cell line. On the procedure: (§1) • (a) Five Hodgkin lymphoma cell lines (KMH2, HDML2, L540, L1236 and L426) were cultured separately in the presence of bendamustine, vorinostat and EDO-S101 dissolved in DMSO at 37° C. L1236-derived Hodgkin lymphoma cell lines were selected as they have an acquired stable resistance to bendamustine (R100) or an ability to display continuous growth upon extended exposure to sub-lethal concentrations of bendamustine (R25, R50 and R75). A detailed description of the L1236-R Hodgkin lymphoma cell lines is disclosed in De Filippi et al, ASH 2015, Abstract. #2479. In these tests, the L1236-100R bendamustine resistant strain was used. […] Control cells were cultured in the same final concentration of DMSO. The number of viable cells was assessed at 24, 48 and 72 hours through a Countess™ automated cell counter (Invitrogen), each experiment being repeated three times and the results given being the mean of the three results±SD.

Series [1] has as its system Hodgkin lymphoma cell lines (KMH2, HDML2, L540, L1236 and L426). Kind of series: IC50 comparison of bendamustine, vorinostat and EDO-S101, five cell lines. The class given is cell-based, human. The settings on record: Homo sapiens; range over all cell lines tested, including L1236-R. On the procedure: as §1
For series [2], the system named is relapsed-refractory Hodgkin lymphoma. The note with it: cited from earlier work.

As to Brentuximab Vedotin, in the series with R100, the “cytotoxic effect in combination with EDO-S101” value was “considerable cytotoxic effect”.

As a reminder, the IC50 is the concentration needed to halve the response being measured. Turning to `Cn1c(CCCC(=O)O)nc2cc(N(CCCl)CCCl)ccc21` [bendamustine, reference compound], the IC50 in the series with L1236-R100 is approximately 140 µM; in series [1], 11 to 17 µM. In addition, the “patients resistant to bendamustine” value in series [2] is reported as “about 40%”.
